Data from PMC10386772, “Novel covalent CDK7 inhibitor potently induces apoptosis in acute myeloid leukemia and synergizes with Venetoclax” (Journal of Experimental & Clinical Cancer Research : CR, 2023).

Biological target: CDK7 (Homo sapiens, UniProt P50613)
Assay: LANCE TR-FRET in vitro kinase assay (U-Light-MBP peptide, […] ATP, […] min; […] at […] min, […] at […] min); bioTHZ1 competition pull-down target occupancy in MOLM13 cells
Assay type: biochemical

Sequence of CDK7 (P50613 2-346): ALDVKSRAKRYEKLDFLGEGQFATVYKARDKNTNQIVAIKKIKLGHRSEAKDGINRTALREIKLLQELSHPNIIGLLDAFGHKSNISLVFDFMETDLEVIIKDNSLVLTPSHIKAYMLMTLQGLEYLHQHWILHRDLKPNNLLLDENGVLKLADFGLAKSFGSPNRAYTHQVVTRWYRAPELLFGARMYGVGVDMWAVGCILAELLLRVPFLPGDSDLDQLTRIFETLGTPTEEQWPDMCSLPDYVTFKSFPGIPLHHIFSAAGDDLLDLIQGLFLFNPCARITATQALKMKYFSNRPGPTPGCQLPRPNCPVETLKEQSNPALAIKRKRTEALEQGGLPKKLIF

XL102
IC50: 0.9 nM
